The target of assay [1] is Troponin, cardiac muscle (Homo sapiens, UniProt P19429+P45379+P63316). The assay is described as follows: Fluorescence-based biochemical high throughput dose response assay for activators of the calcium sensitivity of cardiac Regulated Thin Filaments (RTF). [Related pubchem assays (depositor defined):AID493008, AID493018, AID504382, AID504383]. It counts as protein-complex assay.

Assay [2] addresses T1, E3 ubiquitin-protein ligase XIAP (Homo sapiens, UniProt P98170). Description: XIAP antagonists, biochemical, IAP family, fluorescence polarization (AID 1018). The assay is classed as functional. Background: In fluorescence polarisation assays a small probe gives low polarisation when free and higher when bound to something large.
In assay [3] the target is T1, E3 ubiquitin-protein ligase XIAP. The assay is described as follows: Counter Screen using XIAP-Bir3 for Chemical Antagonists of Bir1/2 domains of IAP-family anti-apoptotic proteins. [Related pubchem assays (depositor defined):AID1018, AID1449, AID1514, AID1638, AID1749, AID1750, AID488957, AID488963].
The target of assay [4] is Nucleotide-binding oligomerization domain-containing protein 2 (Homo sapiens, UniProt Q9HC29). Description: NOD2 signaling inhibitors, cell-based, luminescence, uHTS, HEK293 (AID 1566). The assay is classed as functional.
Assay [5] in a line: Shn3 3'UTR reporter inhibitors, dose response, cell-based, Clone20 osteoblasts, firefly luciferase, cherry-picked (AID 624132).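 Note: firefly luciferase luminescence from reporter carrying the Shn3 3'UTR in osteoblasts.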 The assay is classed as functional.
For assay [6], the system named is HEK293. Description: cells. It counts as functional, cell-based. The note with it: Homo sapiens.
The subject of assay [7] is HEK293. The assay is described as follows: cells. It counts as functional, cell-based. The note with it: Homo sapiens. This is another data set of the same source.
For assay [8], the system named is HEK293. The assay is described as follows: NOD1 signaling inhibitors, primary screen, cell-based, luminescence, uHTS (AID 1578). It counts as functional. The note with it: Homo sapiens.
The subject of assay [9] is HEK293. The assay is described as follows: cells. It counts as functional, cell-based. The note with it: Homo sapiens. This is another data set of the same source.
Assay [10] is described as follows: control 3'UTR Renilla luciferase suppression, dose response, counter-screen for Shn3 inhibitor project, cell-based, Clone20-Shn3RL, cherry-picked (AID 624133). The assay is classed as functional.
A short description of assay [11]: HepG2 cell cytotoxicity, dose response, cytotoxicity control for Shn3 inhibitor project, CellTiter-Glo, cherry-picked (AID 624134). The assay is classed as functional, cell-based.
The test system of assay [12] is HEK293. Description: NOD2 signaling inhibitors in MDP-stimulated cells, cell-based, uHTS, luminescence (AID 2001). The assay is classed as functional. The conditions noted are these: Homo sapiens.
In assay [13] the target is T2, Ubiquitin-conjugating enzyme E2 N (Homo sapiens, UniProt P61088).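 Note: Dose-response confirmation in a TR-FRET assay detecting UBC13-driven polyubiquitin chain formation, inhibition measured.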
T2 sequence (P61088 whole entry): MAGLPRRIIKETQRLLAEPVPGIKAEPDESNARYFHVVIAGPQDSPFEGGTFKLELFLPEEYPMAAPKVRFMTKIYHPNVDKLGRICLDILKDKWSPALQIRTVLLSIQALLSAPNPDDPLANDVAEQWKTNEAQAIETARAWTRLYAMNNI
It counts as functional.

Assay [14] addresses T3, Exodeoxyribonuclease V (Escherichia coli (strain K12), UniProt P04993+P07648+P08394).
T3 sequence (P04993 whole entry): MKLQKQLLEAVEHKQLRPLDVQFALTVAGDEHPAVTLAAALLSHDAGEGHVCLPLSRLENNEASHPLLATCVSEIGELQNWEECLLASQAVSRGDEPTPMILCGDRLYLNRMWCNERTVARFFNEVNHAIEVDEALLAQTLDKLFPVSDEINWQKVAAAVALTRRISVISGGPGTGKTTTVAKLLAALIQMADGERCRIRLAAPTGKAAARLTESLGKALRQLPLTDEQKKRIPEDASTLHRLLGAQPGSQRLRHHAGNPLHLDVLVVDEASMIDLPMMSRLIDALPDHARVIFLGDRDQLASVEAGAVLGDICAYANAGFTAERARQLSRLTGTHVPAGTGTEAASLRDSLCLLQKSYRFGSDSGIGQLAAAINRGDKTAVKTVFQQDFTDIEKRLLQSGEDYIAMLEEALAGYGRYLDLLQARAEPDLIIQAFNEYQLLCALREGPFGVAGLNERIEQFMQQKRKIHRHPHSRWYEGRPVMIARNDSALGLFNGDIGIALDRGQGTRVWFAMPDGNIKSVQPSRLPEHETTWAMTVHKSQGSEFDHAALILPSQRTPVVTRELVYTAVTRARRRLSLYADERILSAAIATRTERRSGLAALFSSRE
T3 sequence (P07648 whole entry): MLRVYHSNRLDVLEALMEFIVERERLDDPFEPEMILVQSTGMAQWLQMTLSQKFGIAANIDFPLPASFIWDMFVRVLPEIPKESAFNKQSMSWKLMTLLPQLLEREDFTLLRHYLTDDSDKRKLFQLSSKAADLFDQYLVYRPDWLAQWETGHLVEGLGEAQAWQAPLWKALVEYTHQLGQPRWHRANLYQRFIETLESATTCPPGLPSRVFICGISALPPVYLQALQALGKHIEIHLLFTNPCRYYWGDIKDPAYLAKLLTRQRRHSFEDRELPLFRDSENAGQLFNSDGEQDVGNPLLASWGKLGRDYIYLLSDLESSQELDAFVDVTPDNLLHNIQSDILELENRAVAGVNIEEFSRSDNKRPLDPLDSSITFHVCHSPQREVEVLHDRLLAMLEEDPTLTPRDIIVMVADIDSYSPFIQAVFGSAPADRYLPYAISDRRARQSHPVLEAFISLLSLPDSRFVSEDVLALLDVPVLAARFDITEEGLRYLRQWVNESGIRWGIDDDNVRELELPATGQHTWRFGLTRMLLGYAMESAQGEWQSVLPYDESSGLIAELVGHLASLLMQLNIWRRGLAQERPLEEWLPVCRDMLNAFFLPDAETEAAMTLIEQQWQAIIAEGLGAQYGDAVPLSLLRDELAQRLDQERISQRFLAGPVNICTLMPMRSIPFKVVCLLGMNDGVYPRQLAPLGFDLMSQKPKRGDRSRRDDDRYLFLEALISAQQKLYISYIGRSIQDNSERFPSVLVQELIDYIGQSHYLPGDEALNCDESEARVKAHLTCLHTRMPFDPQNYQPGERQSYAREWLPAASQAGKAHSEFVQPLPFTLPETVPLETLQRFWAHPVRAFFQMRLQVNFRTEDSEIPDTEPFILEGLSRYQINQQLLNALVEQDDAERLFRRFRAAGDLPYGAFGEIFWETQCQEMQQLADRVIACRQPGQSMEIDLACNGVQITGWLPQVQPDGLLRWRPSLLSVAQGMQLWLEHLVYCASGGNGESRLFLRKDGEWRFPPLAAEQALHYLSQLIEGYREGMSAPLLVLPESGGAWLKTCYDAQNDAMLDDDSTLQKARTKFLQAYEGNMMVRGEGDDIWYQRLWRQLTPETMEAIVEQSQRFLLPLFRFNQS
T3 sequence (P08394 whole entry): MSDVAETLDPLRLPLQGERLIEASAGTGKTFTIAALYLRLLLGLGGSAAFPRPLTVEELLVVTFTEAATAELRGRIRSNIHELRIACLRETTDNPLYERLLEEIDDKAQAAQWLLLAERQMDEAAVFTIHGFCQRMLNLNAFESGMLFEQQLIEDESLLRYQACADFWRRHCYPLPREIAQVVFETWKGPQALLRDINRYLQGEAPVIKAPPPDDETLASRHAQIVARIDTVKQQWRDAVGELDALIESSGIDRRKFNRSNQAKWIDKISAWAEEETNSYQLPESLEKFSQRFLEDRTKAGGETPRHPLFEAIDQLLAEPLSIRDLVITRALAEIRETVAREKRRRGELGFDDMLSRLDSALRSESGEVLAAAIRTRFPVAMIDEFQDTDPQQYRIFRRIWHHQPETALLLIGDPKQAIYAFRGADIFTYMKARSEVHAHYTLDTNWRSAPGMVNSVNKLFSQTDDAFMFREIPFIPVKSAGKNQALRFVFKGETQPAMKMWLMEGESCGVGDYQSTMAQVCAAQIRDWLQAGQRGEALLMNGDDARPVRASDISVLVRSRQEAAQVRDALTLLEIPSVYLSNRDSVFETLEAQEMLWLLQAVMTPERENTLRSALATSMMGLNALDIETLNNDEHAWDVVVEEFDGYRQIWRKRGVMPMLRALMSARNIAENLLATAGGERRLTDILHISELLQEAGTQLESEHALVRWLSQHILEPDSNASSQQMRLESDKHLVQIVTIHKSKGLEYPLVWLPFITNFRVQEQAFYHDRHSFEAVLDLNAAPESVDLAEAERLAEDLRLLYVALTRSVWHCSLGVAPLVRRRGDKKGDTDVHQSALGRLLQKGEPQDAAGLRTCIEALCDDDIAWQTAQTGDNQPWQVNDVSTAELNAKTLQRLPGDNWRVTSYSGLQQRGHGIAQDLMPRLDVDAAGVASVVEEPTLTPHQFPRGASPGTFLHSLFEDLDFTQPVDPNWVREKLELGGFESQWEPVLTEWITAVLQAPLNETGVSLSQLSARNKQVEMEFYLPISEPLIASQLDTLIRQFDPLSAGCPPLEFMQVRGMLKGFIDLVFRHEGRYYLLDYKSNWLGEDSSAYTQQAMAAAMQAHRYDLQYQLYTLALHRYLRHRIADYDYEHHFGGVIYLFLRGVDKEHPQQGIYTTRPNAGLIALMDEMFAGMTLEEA
The assay is described as follows: E. coli RecBCD inhibitors, dose response, counter-screen for AddAB inhibitor project, absorbance, V66 E. coli, mutant T4 phage (AID 492957). The assay is classed as functional, cell-based, Escherichia coli str. K-12 substr. MG1655.

Assay [15] is described as follows: Counterscreen for AddAB inhibitors: absorbance-based bacterial cell-based high throughput dose response assay for inhibitors of bacterial viability. [Related pubchem assays (depositor defined):AID435030, AID449728, AID449731, AID488942, AID488955, AID488956]. It counts as functional. (In general: Counterscreens check selectivity or assay interference.)
In assay [16] the test system is Streptococcus sp. 'group A'. The assay is described as follows: growth inhibition of control SK(-) GAS strain, dose response, counter-screen for streptokinase expression inhibitor project, luminescence, kanamycin, BacTiterGlo, confirmation (AID 1900). The assay is classed as functional, organism-based.
For assay [17], the target named is T4, Streptokinase A (Streptococcus pyogenes serotype M1, UniProt P10520).
T4 sequence (P10520 whole entry): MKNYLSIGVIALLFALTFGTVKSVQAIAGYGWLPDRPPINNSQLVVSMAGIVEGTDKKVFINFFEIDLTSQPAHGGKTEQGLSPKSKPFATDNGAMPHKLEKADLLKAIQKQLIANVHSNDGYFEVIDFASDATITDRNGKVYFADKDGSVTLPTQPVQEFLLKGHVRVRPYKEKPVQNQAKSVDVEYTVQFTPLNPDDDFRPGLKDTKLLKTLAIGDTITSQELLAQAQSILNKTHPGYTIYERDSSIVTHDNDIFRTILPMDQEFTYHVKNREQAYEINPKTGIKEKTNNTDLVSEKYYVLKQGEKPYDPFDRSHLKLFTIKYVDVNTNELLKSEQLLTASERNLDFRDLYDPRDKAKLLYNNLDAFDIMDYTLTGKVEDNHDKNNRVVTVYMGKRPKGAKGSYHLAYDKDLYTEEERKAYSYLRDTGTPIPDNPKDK
The assay is described as follows: S. pyogenes streptokinase expression inhibitors, potency, dose response, plasminogen activation absorbance, OD405 (AID 1914).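 Note: secreted streptokinase activity via plasminogen activation per viability signal from cell pellet.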 It counts as functional, Streptococcus pyogenes M1 GAS.

Assay [18] deals with Streptococcus. Description: Group A Streptococcus viability loss, dose response, counter-screen for streptokinase expression inhibitor project, luminescence, BacTiterGlo (AID 1915).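 Note: potency for reduction of bacterial viability or growth.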 It counts as functional, organism-based.

The structures appear in SMILES notation. Calls of active or inactive are those of the source.

One may read the EC50 as the midpoint of the concentration-response curve. By IC50 is commonly meant the point on the concentration scale where inhibition reaches its midpoint. The AC50 is the midpoint of the concentration-response curve, whichever way the signal moves.

Turning to `C[C@@H](C(=O)N1CCNCC1)n1cc(CCCN=C(N)N)nn1`, in assay [1], the EC50 was > 71.5 µM (inactive).
In the case of `COc1cccc(/C(O)=C/C=N/c2cc(C)ccc2O)c1`, the IC50 in assay [2] is > 100 µM (not active); in assay [3], > 100 µM (inactive).
For the molecule `Cc1nc2ccc(NC(=O)c3cccc(S(=O)(=O)N(C)c4ccccc4)c3)cc2s1`, the EC50 was 7.35 µM (active) in assay [4] and 7.57 µM (active) in assay [8]. Moreover, the half-maximal activity concentration (AC50) in assay [5] was 7.6 µM (active); in assay [10] it was 12.8 µM (active); in assay [11] it was 58.6 µM (active). The IC50 was 15.2 µM (active) in assay [6], 6.11 µM (active) in [7], 9.65 µM (active) in assay [9] and 5.24 µM (active) in [12].
With `CCC[C@@H](CN1CCC[C@H]1CN1C(N)=NC[C@@H]1Cc1ccccc1)N1C[C@@H](Cc2ccccc2)N(CCCC2CCCC2)C1=N`, the IC50 in assay [13] is > 20 µM (inactive). The EC50 in [1] was > 71.4 µM (inactive).
On to `COc1ccc2c(c1)CCc1c(C(=O)Nc3cc(C)n(Cc4ccc(Cl)cc4)n3)noc1-2`, for which the IC50 in assay [2] was > 100 µM (not active); in [3], > 100 µM (inactive).
With `NC(=O)c1ccsc1NC(=O)COC(=O)c1ccc([N+](=O)[O-])o1`, the IC50 in [14] is > 119 µM (inactive); in assay [15], > 39.5 µM (inactive).
Turning to `CCN(CC)S(=O)(=O)c1cccc(C(=O)Nc2nc3cc4c(cc3s2)OCCO4)c1`, the EC50 in assay [4] is 4.53 µM (active); in assay [16], 1.08 µM (active); in [17], > 150 µM (not active); in assay [18], 7.62 µM (active); in [8] it was 3.29 µM (active). The IC50 in assay [6] was > 20 µM (inactive); in assay [7], 4.3 µM (active); in assay [9] it was 9.78 µM (active); in assay [12], 3.47 µM (active).
For `CC/C(=N\NS(C)(=O)=O)c1ccccc1`, the 50% inhibitory concentration (IC50) is > 100 µM (not active) in assay [2] and > 100 µM (inactive) in assay [3].
